Among the data in PubChem BioAssay AID651691 (NMMLSC, 2012) are IC50 values, retold here.

Calls of active or inactive are those of the source. No rule for the calls is given here. A value given as a limit tells only on which side of the number the result lay.

One experiment concerns the target BoNT/ALC. Kind of experiment: confirmation, biochemical, FRET, cleavage-site specific substrates (AID 651691). The note with it: FRET protease cleavage assay, BoNT/A LC or LF.
A further experiment concerns the target LF. Described as above. The note with it: FRET protease cleavage assay, BoNT/A LC or LF.

In the case of `O=[N+]([O-])c1ccc(N2N=C(c3ccccc3)CC2c2ccccc2)cc1` (stereo not given), on BoNT/ALC, the IC50 was 1000 nM.
As to `Cc1ccc(-c2cn3nc(-c4ccccc4)c(-c4ccccc4)nc3n2)cc1`, on BoNT/ALC, the concentration for half-maximal inhibition (IC50) is 300 nM. The IC50 entry on LF was “inactive”.
In the case of `Clc1ccc(-c2cn3nc(-c4ccccc4)c(-c4ccccc4)nc3n2)cc1`, on BoNT/ALC, the IC50 is 700 nM. For the same compound, the IC50 result on LF was “inactive”.
Turning to `COc1ccc(C2CC(c3cccs3)=NN2c2nc(C)c(C(C)=O)s2)cc1OC` (stereo not given), at BoNT/ALC, the IC50 was 1300 nM.
Still for that read-out and setting: next, `O=[N+]([O-])c1ccc(C2=NN(c3ccccc3)C(c3ccco3)C2)cc1` (stereo not given): > 20000 nM (inactive).
Consider `O=C(Nc1ccc2nc(-c3cccs3)c(-c3cccs3)nc2c1)N1CCCCC1`, for which the IC50 at BoNT/ALC was 1200 nM.
Take `O=C(Nc1ccc2nc(-c3cccs3)c(-c3cccs3)nc2c1)N1CCOCC1`: the IC50 on BoNT/ALC is > 20000 nM (inactive).
For the compound `COc1ccc(-c2cn3nc(-c4ccccc4)c(-c4ccccc4)nc3n2)cc1`, the IC50 on BoNT/ALC was 500 nM. Further, on LF, the IC50 entry was “inactive”.
On to `c1ccc(-c2cn3nc(-c4ccccc4)c(-c4ccccc4)nc3n2)cc1`, for which the IC50 on BoNT/ALC was 500 nM.
Consider `O=C(Nc1ccc2nc(-c3cccs3)c(-c3cccs3)nc2c1)NC1CC1`, for which the IC50 at BoNT/ALC was > 20000 nM (inactive). Besides, on LF, the IC50 entry is “inactive”.
`COc1ccccc1N1N=C(c2ccc([N+](=O)[O-])cc2)CC1c1ccccc1` (stereo not given): the IC50 on BoNT/ALC was 200 nM.
